{
  "source": "patent US12098433B2",
  "about": "(priority 2018, dated 2024)",
  "key": {"[1]": {"tested_on": "atzR (via atzABC conversion of atrazine to cyanuric acid)", "type": "biochemical, E. coli extracts; Pseudomonas ADP-1 pathway", "details": "for time at which ON is distinguished from OFF (kinetic divergence): 100 μM atrazine; for sensor response to triazines (specificity): FIG. 19C"}, "[2]": {"tested_on": "atzR (via atzABC conversion of atrazine to cyanuric acid)", "assay": "Colorimetric atrazine sensor (C23O reporter), freeze-dried reactions", "type": "biochemical, E. coli extracts; Pseudomonas ADP-1 pathway"}, "[3]": {"tested_on": "unregulated cell-free protein synthesis reaction (cell-free transcription and translation)", "type": "biochemical, E. coli"}, "[4]": {"tested_on": "AtzR transcription factor", "assay": "Cell-free cyanuric acid sensor: AtzR-regulated sfGFP reporter", "type": "biochemical, Pseudomonas sp. ADP-1", "details": "for fold-induction of sfGFP: 100 μM"}, "[5]": {"tested_on": "AtzR transcription factor", "assay": "Cell-free cyanuric acid sensor with colorimetric catechol 2,3-dioxygenase reporter", "type": "biochemical, Pseudomonas sp. ADP-1", "details": "600 μM CYA in ON state; tubes with catechol at 30° C.", "protocol": "FIG. 18. Proof-of-concept for field-deployable cyanuric acid sensing using a cell-free biosensor. (a) Optimized cell-free reactions are prepared without cyanuric acid (CYA), freeze-dried, and then rehydrated with unfiltered environmental water samples. (b) CYA in environmental water samples can be detected from freeze-dried cell-free reactions. […] (c) Time course comparisons of the OFF state from panel B, for the unfiltered environmental water samples that were not spiked with CYA. Pool water can be distinguished against lake water in less than one hour. […] CYA was added at a concentration of 600 μM in the ON state to a fresh cell-free reaction incubated at 30° C. and monitored for 90 minutes. […] Fluorescence in b and c is reported standardized to mean equivalent fluorescence (MEF) of fluorescein isothiocyanate based on a previously developed standard.\nFinally, we aimed to validate if a visible output signal for the sensor could be generated without a plate reader to enable equipment-free detection of CYA from environmental samples. […] Because fluorescence of sfGFP is difficult to detect by the unaided eye, particularly in the early stages of the reaction, we replaced the coding sequence of the reporter plasmid instead with the enzyme catechol 2,3-dioxygenase (C23DO). […]"}, "[6]": {"tested_on": "NarX / NarL two-component system"}, "[7]": {"tested_on": "NarX / NarL two-component system", "details": "colorimetric C32O reporter"}},
  "note": "Entries after “also recorded” stand apart in the source; their conditions may differ. Where two headings read alike, the source gives them in different places.",
  "data": [
    {"smiles": "CCNc1nc(Cl)nc(NC(C)C)n1", "note": "[atrazine]", "values": [
      {"measurement": "calculated limit of detection above background", "setting": "[1]", "result": "approximately 20 μM"},
      {"measurement": "time at which ON is distinguished from OFF (kinetic divergence)", "setting": "[1]; optimized sensor", "result": "approximately one hour"},
      {"measurement": "time at which ON is distinguished from OFF (kinetic divergence)", "setting": "[1]; optimized sensor, listed as Atrazine", "result": "within one hour"},
      {"measurement": "sensor response to triazines (specificity)", "setting": "[1]", "result": "capable of detecting"},
      {"measurement": "detection by sensor", "setting": "[1]; doped at 100 μM, all enriched extracts plus blank extract", "result": "could detect"},
      {"measurement": "overall limit of detection (figure legend)", "setting": "[1]; optimized sensor, dose-response curve FIG. 22E", "result": "around 20"},
      {"measurement": "EC50", "setting": "[1]; read-out: half-maximal signal", "result": "~66", "unit": "µM"},
      {"measurement": "reactions changing color", "setting": "[2]; 100 nM atrazine, three replicates, four-hour limit", "result": "one of the three reactions"},
      {"measurement": "limit of detection for the enzymatic reporter", "setting": "[2]; freeze-dried, all three replicates turned on within four-hour limit", "result": 1},
      {"measurement": "poisoning / inhibitory effect on cell-free protein synthesis (sfGFP)", "setting": "[3]; 100 μM", "result": "Minimal poisoning"}
    ]},
    {"smiles": "O=c1[nH]c(=O)[nH]c(=O)[nH]1", "note": "[cyanuric acid]", "values": [
      {"measurement": "fold-induction of sfGFP", "setting": "[4]; optimal 1 nM AtzR plasmid and 10 nM reporter plasmid, 4-hour incubation", "result": "> 12", "unit": "fold"},
      {"measurement": "fold-induction of sfGFP", "setting": "[4]; reporter based on Promoter P2 (E. coli consensus −10 site), promoter screen", "result": "~8", "unit": "fold"},
      {"measurement": "linear operating range of dose-response", "setting": "[4]; optimal plasmid concentrations", "result": "0 to 100", "unit": "µM"},
      {"measurement": "time to production of yellow color (reporter activation)", "setting": "[5]", "result": "≤ 1", "unit": "h"},
      {"measurement": "sensor response to triazines (specificity)", "setting": "[1]", "result": "capable of detecting"}
    ]},
    {"smiles": "Nc1nc(N)nc(N)n1", "note": "[melamine]", "values": [
      {"measurement": "sensor response to triazines (specificity)", "setting": "[1]", "result": "unreactive"},
      {"measurement": "poisoning / inhibitory effect on cell-free protein synthesis (sfGFP)", "setting": "[3]; 100 μM", "result": "Minimal poisoning"}
    ]},
    {"smiles": "O=[N+]([O-])O", "note": "[nitrate]", "values": [
      {"measurement": "sensor activation", "setting": "[6]; 1 mM nitrate, absence of supplemental NarX", "result": "activated"},
      {"measurement": "detection by sensor", "setting": "[6]; 1 mM nitrate, certain ratios of NarX- and NarL-enriched extracts", "result": "robust detection"},
      {"measurement": "sensitivity of cell-free system", "setting": "[6]; optimal conditions, sfGFP reporter", "result": "more sensitive than the environmental limit"},
      {"measurement": "lowest concentration detected, visible by naked eye", "setting": "[7]", "result": 10, "unit": "µM"}
    ]},
    {"smiles": "CC(C)Nc1nc(Cl)nc(NC(C)C)n1", "note": "[propazine]", "values": [
      {"measurement": "sensor response to triazines (specificity)", "setting": "[1]", "result": "weak activation; also recorded: capable of detecting"},
      {"measurement": "poisoning / inhibitory effect on cell-free protein synthesis (sfGFP)", "setting": "[3]", "result": "Minimal poisoning"}
    ]}
  ]
}
